Assays:
K. pneumoniae ST258 [1] = details: K. pneumoniae ST258; growth-curve assay
Method: (§1) Minimal inhibitory concentrations (MICs) of peptidomimetics, antibiotics and their combinations were determined by broth microdilution according to the Clinical Laboratory Standards Institute performance standards (Clinical and Laboratory Standards Institute, [2013]). […] Since rifampicin and azithromycin mainly are used to treat infections with Gram-positive pathogens only CLSI clinical breakpoints were available for such bacteria. […] Potentiation of additional antibiotics by peptidomimetics was determined by using commercial 96-well plates containing varied concentrations of standard antibiotics (COMPAN1F; Trek Diagnostic Systems Inc.). The peptidomimetics were added immediately prior to inoculation with pathogen, and then MICs were determined as above. The MICs of peptidomimetic/antibiotic combinations were determined according to the method above, and the concentration ratios were selected based upon checkerboard results with 2:1 and 1:4 ratio of peptidomimetic with rifampicin or azithromycin, respectively. Minimal bactericidal concentrations (MBCs) were determined by using growth-curve assay plates. MIC plates were prepared as above, and then the plates were incubated at 37°C with continuous shaking. Growth was recorded at 10 min intervals as optical density (OD) at 600 nm during 24 h. At 24 h, for wells without growth, a sample was diluted 10-fold in sterile saline (0.9% sodium chloride) and plated onto MHA, following CLSI guidelines (Clinical and Laboratory Standards Institute, [1999]).

P. aeruginosa ATTC 27853 = details: P. aeruginosa ATTC 27853; growth-curve assay
Method: as §1

E. coli ST131 [2] = details: E. coli ST131; growth-curve assay
Method: as §1

K. pneumoniae ST258 [3] = details: checkerboard
Method: (§2) The potential synergistic effects in peptidomimetic-antibiotic combinations were assessed by using a two-dimensional checkerboard assay (Garcia, [2010]). Briefly, twofold dilutions of peptide and antibiotic were prepared in MBH II media along the X- and Y-axis, respectively, in 96-well plates. The inoculum was added to the plates, and subsequently these were incubated for 18–20 h. All steps for inoculum preparation and broth microdilution were in accordance with the CLSI guidelines (Clinical and Laboratory Standards Institute, [2013]). The fractional inhibitory concentration index (FICI) was calculated as [MICA(A+B)/MICA(alone)] + [MICB(A+B)/MICB(alone)], where MICA(A+B) represents the MIC of antibiotic (A) in combination with peptidomimetic (B), while MICB(A+B) represents the MIC of peptidomimetic (B) in combination with antibiotic (A). MICA(alone) and MICB(alone) represent the MIC of each compound individually. FICI values of ≤0.5 were interpreted as synergy.

P. aeruginosa ATCC 27853 = details: P. aeruginosa ATCC 27853; checkerboard
Method: as §2

E. coli ST131 [4] = details: checkerboard
Method: as §2

[5] = test system: E. coli clinical isolates and reference strains; assay: MIC of fixed-ratio peptidomimetic 1-antibiotic combinations in clinical isolates and reference strains; assay type: cell-based, Escherichia coli; details: in combination with 0.5–1 μM peptidomimetic 1
Description: (§3) Bacterial strains used in this study comprise MDR clinical isolates of E. coli ST131 (Cerquetti et al., [2010]) and K. pneumoniae ST258 (Jana et al., [2017]), and American type culture collection (ATCC) strains: ATCC 25922 (E. coli), ATCC 13883 (K. pneumoniae), and ATCC 27853 (P. aeruginosa). Additional clinical isolates of E. coli, K. pneumoniae, and P. aeruginosa resistant to β-lactams (including carbapenems and cephalosporins) were provided by Laurent Poirel, Université de Fribourg, Switzerland. The following growth media was routinely used for bacterial culturing: Luria-Burtani (LB), cation-adjusted Mueller-Hinton agar (MHA) and broth (MHB II). All assays were performed in cation-adjusted MHA or MHB II. Antibiotics were purchased from Sigma-Aldrich and the peptidomimetic collection (Table S1) was curated and provided by Henrik Franzyk. […]
(§4) Minimal inhibitory concentrations (MICs) of peptidomimetics, antibiotics and their combinations were determined by broth microdilution according to the Clinical Laboratory Standards Institute performance standards (Clinical and Laboratory Standards Institute, [2013]). […] Potentiation of additional antibiotics by peptidomimetics was determined by using commercial 96-well plates containing varied concentrations of standard antibiotics (COMPAN1F; Trek Diagnostic Systems Inc.). The peptidomimetics were added immediately prior to inoculation with pathogen, and then MICs were determined as above. The MICs of peptidomimetic/antibiotic combinations were determined according to the method above, and the concentration ratios were selected based upon checkerboard results with 2:1 and 1:4 ratio of peptidomimetic with rifampicin or azithromycin, respectively. Minimal bactericidal concentrations (MBCs) were determined by using growth-curve assay plates. […] Growth was recorded at 10 min intervals as optical density (OD) at 600 nm during 24 h. […]

[6] = test system: P. aeruginosa clinical isolates and reference strains; assay: as above; assay type: cell-based, Pseudomonas aeruginosa; details: with 1–8 μM of 1
Description: as §3, §4

E. coli ST131 [7] = assay: Potentiation of additional antibiotics (COMPAN1F plates), MIC; assay type: cell-based, Escherichia coli
Method: as §1

K. pneumoniae ST258 [8] = assay: as above; assay type: cell-based, Klebsiella pneumoniae
Method: as §1

Structure (SMILES) | MBC (antibiotic alone) (K. pneumoniae ST258 [1]) [µg/mL] | MIC (antibiotic alone) (K. pneumoniae ST258 [1]) [µg/mL] | MBC (antibiotic alone) (P. aeruginosa ATTC 27853) [µg/mL] | MIC (antibiotic alone) (P. aeruginosa ATTC 27853) [µg/mL] | MBC (antibiotic alone) (E. coli ST131 [2]) [µg/mL] | MIC (antibiotic alone) (E. coli ST131 [2]) [µg/mL] | Antibiotic MIC alone (K. pneumoniae ST258 [3]) [µg/mL] | Antibiotic MIC alone (P. aeruginosa ATCC 27853) [µg/mL] | Antibiotic MIC alone (E. coli ST131 [4]) [µg/mL] | Antibiotic concentration to which most E. coli isolates proved susceptible in combination [5] [µg/mL] | MIC of antibiotic in combination, P. aeruginosa isolates (typical) [6] [µg/mL] | also measured
CC[C@H]1OC(=O)[C@H](C)[C@@H](O[C@H]2C[C@@](C)(OC)[C@@H](O)[C@H](C)O2)[C@H](C)[C@@H](O[C@@H]2O[C@H](C)C[C@H](N(C)C)[C@H]2O)[C@](C)(O)C[C@@H](C)CN(C)[C@H](C)[C@@H](O)[C@]1(C)O [Azithromycin, azithromycin] | >32 | >32 | >128 | >128 | >16 | 8 | 32 | >128 | 8 | 2 to 4 | 4 to 8 | 
CO[C@H]1/C=C/O[C@@]2(C)Oc3c(C)c(O)c4c(O)c(c(/C=N/N5CCN(C)CC5)c(O)c4c3C2=O)NC(=O)/C(C)=C\C=C\[C@H](C)[C@H](O)[C@@H](C)[C@@H](O)[C@@H](C)[C@H](OC(C)=O)[C@@H]1C [Rifampicin, rifampicin] | >16 | >16 | >64 | >64 | >4 | >4 | 16 | 32 | 4 | 0.25 to 0.5 | 0.5 | MIC of antibiotic in presence of peptidomimetic 26 (E. coli ST131 [7]; + 0.25 μM peptidomimetic 26): ≤1 µg/mL; MIC of antibiotic in presence of peptidomimetic 26 (E. coli ST131 [7]; + 0.25 μM peptidomimetic 26, listed as rifampicin): below 1 μg/mL; MIC of antibiotic in presence of peptidomimetic 1 (E. coli ST131 [7]; + 0.5 μM peptidomimetic 1): ≤1 µg/mL; MIC of antibiotic in presence of peptidomimetic 1 (E. coli ST131 [7]; + 0.5 μM peptidomimetic 1, listed as rifampicin): below 1 μg/mL; MIC of antibiotic in presence of peptidomimetic 15 (E. coli ST131 [7]; + 0.5 μM peptidomimetic 15): ≤1 µg/mL; MIC of antibiotic in presence of peptidomimetic 15 (E. coli ST131 [7]; + 0.5 μM peptidomimetic 15, listed as rifampicin): below 1 μg/mL; MIC (E. coli ST131 [7]; Escherichia coli, no peptidomimetic, read-out: MIC of antibiotic alone): > 2 µg/mL; MIC of antibiotic alone (E. coli ST131 [7]; no peptidomimetic): >2 µg/mL; MIC of antibiotic in presence of peptidomimetic 1 (K. pneumoniae ST258 [8]; + 1 μM peptidomimetic 1): ≤1 µg/mL; MIC of antibiotic in presence of peptidomimetic 1 (K. pneumoniae ST258 [8]; + 1 μM peptidomimetic 1, listed as rifampicin): below 1 μg/mL; MIC of antibiotic in presence of peptidomimetic 15 (K. pneumoniae ST258 [8]; + 1 μM peptidomimetic 15): ≤1 µg/mL; MIC of antibiotic in presence of peptidomimetic 15 (K. pneumoniae ST258 [8]; + 1 μM peptidomimetic 15, listed as rifampicin): below 1 μg/mL; MIC of antibiotic in presence of peptidomimetic 26 (K. pneumoniae ST258 [8]; + 1 μM peptidomimetic 26): ≤1 µg/mL; MIC of antibiotic in presence of peptidomimetic 26 (K. pneumoniae ST258 [8]; + 1 μM peptidomimetic 26, listed as rifampicin): below 1 μg/mL; MIC (K. pneumoniae ST258 [8]; Klebsiella pneumoniae, no peptidomimetic, read-out: MIC of antibiotic alone): > 2 µg/mL; MIC of antibiotic alone (K. pneumoniae ST258 [8]; no peptidomimetic): >2 µg/mL
